Measured values taken from US11090323B2, “Pharmaceutical composition, methods for treating and uses thereof” (Boehringer Ingelheim International GmbH, priority 2013, dated 2021).

Experiments:
[1] = test system: the diabetic; conditions: metformin on its own; cited from earlier work
[2] = test system: patients with T2DM and CKD stage 3A, 3B and 4; assay: Phase III trial of empagliflozin as add-on to existing therapy in patients with T2DM and CKD stage 3A, 3B and 4; type: in vivo, human; conditions: EMPA 25 mg; for AEs consistent with urinary tract infection, patients / AEs consistent with volume depletion, patients / adverse events (AEs) reported, patients: 52 weeks
Experimental: A Phase III trial investigated the efficacy and safety of empagliflozin (EMPA) as add-on to existing therapy for 52 weeks in patients with T2DM and CKD stage 3A, 3B and 4. Patients with CKD stage 3A (eGFR [MDRD equation] ≥45 to <60 ml/min/1.73 m^2; n=180; mean [SD] age 64.5 [8.0] years; mean [SD] BMI 30.5 [5.2] kg/m^2), CKD stage 3B (eGFR ≥30 to <45 ml/min/1.73 m^2; n=194; mean [SD] age 65.2 [9.0] years; mean [SD] BMI 30.0 [5.4] kg/m^2) or CKD stage 4 (eGFR ≥15 to <30 ml/min/1.73 m^2; n=74; mean [SD] age 64.1 [11.1] years; mean [SD] BMI 30.4 [5.6] kg/m^2) received EMPA 25 mg qd or PBO for 52 weeks. In exploratory analyses, we assessed the long-term efficacy and safety of EMPA, including changes from baseline in HbA1c, fasting plasma glucose (FPG), weight and systolic and diastolic blood pressure (SBP and DBP) at week 52 (FIG. 7).

[3] = test system: patients with T2DM and RI; assay: Phase III trial of empagliflozin as add-on to existing therapy in patients with T2DM and renal impairment; type: in vivo, human
Experimental: A Phase III trial investigated the efficacy and safety of empagliflozin (EMPA) as add-on to existing therapy for 52 weeks in patients with T2DM and RI. Patients with mild RI (eGFR [MDRD equation] ≥60 to <90 mL/min/1.73 m^2; n=290; mean age 62.6 years; mean BMI 31.5 kg/m^2) received EMPA 10 or 25 mg qd or placebo (PBO). Patients with moderate RI (eGFR ≥30 to <60 mL/min/1.73 m^2; n=374; mean age 64.9 years; mean BMI 30.2 kg/m^2) received EMPA 25 mg qd or PBO. The primary endpoint was change from baseline in HbA1c at week 24. Exploratory endpoints included changes from baseline in fasting plasma glucose (FPG), weight and blood pressure (BP) at week 24 (FIG. 1).

[4] = test system: renal glucose absorption; assay: PK-PD nonlinear mixed-effects model of empagliflozin exposure vs urinary glucose excretion / renal glucose threshold; type: in vivo, human
Source text: Empagliflozin, a selective and potent SGLT2 inhibitor, reduces renal glucose reabsorption by lowering the renal threshold for glucose (RTG) leading to increased urinary glucose excretion (UGE) and decreased plasma glucose (PG) in patients with type 2 diabetes mellitus (T2DM). This analysis aimed to quantify the impact of empagliflozin on RTG by characterizing the relationship between empagliflozin exposure and UGE in patients with T2DM using nonlinear mixed-effects modeling.
A pharmacokinetic (PK)-pharmacodynamic (PD) model was developed using UGE, PG, PK and estimated glomerular filtration rate (eGFR) data from three Phase I/II trials (N=223; placebo, empagliflozin 1 to 100 mg once daily [QD]). The model assumed that when PG>RTG, UGE increased with increasing PG and eGFR; and when PG≤RTG slight glucose leakage into urine occurred (estimated as fraction reabsorbed [FRAC]). Reabsorption was estimated by a nonlinear function parameterized in terms of maximum reabsorbed glucose concentration (Gmax) and PG concentration to reach half maximum transport (Km). Maximum inhibitory effect (Imax) and half maximal inhibitory concentration (IC50) described inhibition of renal glucose absorption. RTG was calculated as the difference between maximum reabsorption (including drug effect) and KM. The model was evaluated via bootstrap and external predictive check of an empagliflozin renal impairment study.

In the case of `CN(C)C(=N)N=C(N)N` [metformin], the “average improvement in the HbA1c value” [1] is listed as 1.0-1.5%.
For `OC[C@H]1O[C@@H](c2ccc(Cl)c(Cc3ccc(O[C@H]4CCOC4)cc3)c2)[C@H](O)[C@@H](O)[C@@H]1O` [empagliflozin, 1-chloro-4-(β-D-glucopyranos-1-yl)-2-[4-((S)-tetrahydrofuran-3-yloxy)-benzyl]benzene], the “AEs consistent with urinary tract infection, patients” value ([2]; CKD stage 3A) was 16.5%, the “AEs consistent with volume depletion, patients” value ([2]; CKD stage 3A) was 4.4% and the “adverse events (AEs) reported, patients” value ([2]; CKD stage 3A) was 86.8%. For the same compound, the “AEs consistent with urinary tract infection, patients” value ([2]; CKD stage 3B) was 16.7%, the “AEs consistent with volume depletion, patients” value ([2]; CKD stage 3B) was 3.1% and the “adverse events (AEs) reported, patients” value ([2]; CKD stage 3B) was 80.2%. The “AEs consistent with urinary tract infection, patients” value ([2]; CKD stage 4) was 18.9%, the “AEs consistent with volume depletion, patients” value ([2]; CKD stage 4) was 5.4% and the “adverse events (AEs) reported, patients” value ([2]; CKD stage 4) was 91.9%. The DBP ([2]; week 52, CKD stage 3A) was “significantly reduced”, the FPG ([2]; week 52, CKD stage 3A) was “significantly reduced” and the “HbA1c vs PBO” value ([2]; week 52, CKD stage 3A) was “significantly reduced”. For the same compound, the SBP ([2]; week 52, CKD stage 3A) was “significantly reduced”, the weight ([2]; week 52, CKD stage 3A) was “significantly reduced” and the FPG ([2]; week 52, CKD stage 3B) was “significantly reduced”. For the same compound, the “HbA1c vs PBO” value ([2]; week 52, CKD stage 3B) was “significantly reduced”, the weight ([2]; week 52, CKD stage 3B) was “significantly reduced” and the BP ([2]; week 52, CKD stage 4) was “Reductions”. The FPG ([2]; week 52, CKD stage 4) was “Reductions”, the HbA1c ([2]; week 52, CKD stage 4) was “did not reduce” and the weight ([2]; week 52, CKD stage 4) was “Reductions”. The “AEs consistent with genital infection, patients” value ([3]; EMPA 10 mg qd) was 6.1%, the “AEs consistent with urinary tract infection, patients” value ([3]; EMPA 10 mg qd) was 10.2% and the “Hypoglycemia (plasma glucose ≤70 mg/dL and/or requiring assistance), patients” value ([3]; EMPA 10 mg qd) was 23.5%. For the same compound, the “adverse events (AEs) reported, patients” value ([3]; EMPA 10 mg qd, week 24, all patients) was 79.6%, the “AEs consistent with genital infection, patients” value ([3]; EMPA 25 mg qd) was 2.5% and the “AEs consistent with urinary tract infection, patients” value ([3]; EMPA 25 mg qd) was 9.0%. For the same compound, the “Hypoglycemia (plasma glucose ≤70 mg/dL and/or requiring assistance), patients” value ([3]; EMPA 25 mg qd) was 22.1%, the “adverse events (AEs) reported, patients” value ([3]; EMPA 25 mg qd, week 24, all patients incl. exploratory severe RI group) was 75.4% and the “difference to placebo for the adjusted mean change in HbA1c from baseline” value ([3]; Week 24, moderate A renal impairment) was −0.46%. For the same compound, the “difference to placebo for the adjusted mean change in HbA1c from baseline” value ([3]; Week 24, moderate B renal impairment) was −0.39%, the tolerability ([3]; patients with T2DM and mild or moderate RI) was “well tolerated” and the BP ([3]; week 24, further analyses) was “significant reductions”. For the same compound, the FPG ([3]; week 24, further analyses) was “significant reductions”, the weight ([3]; week 24, further analyses) was “significant reductions” and the “HbA1c vs PBO” value ([3]; week 24, mild or moderate RI) was “significantly reduced”. For the same compound, the IC50 ([4]; Homo sapiens, model parameter estimate, three Phase I/II trials, N=223, read-out: IC50, half maximal inhibitory concentration for renal glucose absorption (95% CI)) was 5.28 nM, the “RTG (renal threshold for glucose)” value ([4]; dose 1 mg) was 100.5 mg/dL and the “RTG (renal threshold for glucose)” value ([4]; dose 5 mg) was 43.8 mg/dL. For the same compound, the “RTG (renal threshold for glucose)” value ([4]; dose 10 mg) was 33.1 mg/dL, the “RTG (renal threshold for glucose)” value ([4]; dose 25 mg) was 26.0 mg/dL and the “Imax, maximum inhibitory effect on renal glucose absorption (95% CI)” value ([4]; model parameter estimate, three Phase I/II trials, N=223) was 0.559 (0.545, 0.607).
